Test results taken from patent US8212010B2, “Sphingosine 1-phosphate antagonism” (Expression Drug Designs, LLC, priority 2008, dated 2012).

What was measured:
tumor transplant model = details: in vivo; cited from earlier work
S1P receptor = details: with the exception of S1P2; by stable internalization; cited from earlier work
MDA-MB-231 cells [1] = assay: Tamoxifen toxicity, cell viability by phase contrast microscopy; type: cell-based, human
Protocol: The experiment can be performed first without a S1P antagonist. MDA-MB-231 cells are cultured under standard conditions in […] supplemented with 10% fetal bovine serum and glutamate. Cells are grown in the absence of serum for 24 hours prior to experimental manipulation. Tamoxifen (Tam) and S1P are added to the media at the indicated concentrations for the indicated times at the appropriate concentrations (e.g., 3 μM Tam, 10 μM Tam, and 20 μM Tam) for appropriate times (e.g., 6 hrs. and 24 hrs.). Cell viability is observed by direct illumination with an inverted phase contrast microscope.
The tamoxifen toxicity experiment can be performed using an antagonist of S1P that binds to S1P3. For example, the antiserum described in Example 1 can be employed. MDA-MB-231 cells are cultured under standard conditions in Dulbecco's Minimal Essential Media supplemented with 10% fetal bovine serum and glutamate. Serum concentration is reduced to 1% for 24 hours prior to experimental manipulation. Tamoxifen and S1P are added to the media at the appropriate concentrations (e.g., 0 μM Tam, 10 μM Tam, and 20 μM Tam) for appropriate times (e.g., 6 hrs. and 24 hrs.). Cell viability is observed by direct illumination with an inverted phase contrast microscope.

MDA-MB-231 cells [2] = assay: Cell motility, modified Boyden's chamber assay; type: cell-based, human; details: 1 μM S1P; two hour time point
Protocol: Cell motility is determined using a modified Boyden's chamber assay. MDA-MB-231 cells are introduced into the upper wells of collagen-coated chambers in serum-free DMEM and incubated for 30 minutes before the addition of either 1 μM S1P in BSA or BSA alone. At the indicated times, wells are isolated and fixed with 4% paraformaldehyde before non-migrated cells in the upper well are removed with a cotton swab. Membranes are then stained with DAPI to visualize individual migrated cells on the bottom of the membranes. Results shown are the averages of three independent experiments. Determination of the effect of S1P3 blocking antibodies on the migration of cancer cells can be performed as follows. The effect of S1P3 blocking antibodies is determined using a modified Boyden chamber assay as described above. In this case, an appropriate cell line (such as […]) is seeded into the upper chamber of the transwell and pre-treated with a blocking antibody or control antibody. […] Cells are then fixed and counted as described above. The anti-migratory effect of the blocking antibody is determined by comparing the number of migrated cells in the presence of the antibody to the number of migrated cells in the presence of an appropriate control antibody under the same stimulatory conditions.

[3] = test system: MDA-MB-231 breast cancer cells; assay: S1P-induced cytoskeletal rearrangement / cell rounding; type: cell-based, human
Protocol: MDA-MB-231 breast cancer cells are cultured on collagen-coated coverslips in the presence of 10% FBS using standard techniques. Because S1P is present at high concentrations in serum, BCCs are “serum-starved” in Dulbecco's modified Eagle medium (DMEM) for 12 hours prior to experimental manipulation. S1P is solubilized with bovine serum albumin (BSA) carrier and administered at a final concentration of 1 nM to 1 μM. Coverslips are collected at representative time points such as 10 minutes, 1 hr., 2 hrs., 4 hrs., and 6 hrs., fixed with 4% paraformaldehyde, and stained with rhodamine-conjugated phalloidin to label cytoskeletal actin.
The cell rounding experiment can be performed using an antagonist of S1P that binds to S1P3. […] Serum-starved MDA-MB-231 cells are incubated with preimmune serum or S1P3-reactive antiserum for 15 minutes prior to a 30-minute exposure to 10 nM S1P, then evaluated for response both in % cells responding and average cell area.
MDA-MB-231 cells are grown under standard culture conditions and serum starved for 24 hours prior to experimental manipulation. […] 30 minutes after S1P administration, cells are fixed with 4% paraformaldehyde, stained with rhodamine-conjugated phalloidin, and visualized with fluorescence microscopy. Rounded cells are counted by an experimenter blinded to the identity of the sample. Cell area is determined by quantification with imageJ software.

MCF-7 cells = assay: Cell death by annexin V assay; type: cell-based, human
Protocol: Quantification of cell death can be performed with an annexin V assay. Serum-starved cells can be treated overnight with […] tamoxifen in the presence or absence of 500 nM S1P, then collected by trypsinization, and labeled with Alexafluor 488-conjugated annexin V (Invitrogen Corp, Carlsbad, Calif.) per manufacturer's protocol. Cells can be counted on a FACSAria cell sorting system and analyzed with FACSDiva software (BD Biosciences, San Jose, Calif.). […] This effect is attenuated by co-administration of 500 nM S1P.

SMILES: CCCCCCCCc1ccc(CCC(N)(CO)CO)cc1 [FTY720]
- effect on angiogenesis and tumor growth (tumor transplant model): inhibit angiogenesis and subsequent growth
- inhibition of S1P receptors (S1P receptor): effectively inhibit four of the five known receptors

SMILES: CCCCCCCCCCCCC/C=C/[C@@H](O)[C@@H](N)COP(=O)(O)O [S1P, Sphingosine 1-phosphate]
- cell viability under tamoxifen with S1P (MDA-MB-231 cells [1]; serum-free, 6 hours, media supplemented with 1 μM S1P): many viable cells remain
- cell viability under tamoxifen with S1P (MDA-MB-231 cells [1]; serum-free, 24 hour, addition of S1P): markedly improves survival
- increase in migrated cells compared to vehicle control (MDA-MB-231 cells [2]): nearly two-fold increase
- cell shape change ([3]; 1 nM S1P): minor cell shape changes
- cell shape change ([3]; 10 nM S1P): dramatic cell rounding
- effect on tamoxifen-induced annexin V binding (MCF-7 cells; co-administration of 500 nM S1P): attenuated

SMILES: CC/C(=C(\c1ccccc1)c1ccc(OCCN(C)C)cc1)c1ccccc1 [Tamoxifen]
- cell viability (MDA-MB-231 cells [1]; 1% FBS, 6 hours, 10 μM Tam): appear normal
- cell viability (MDA-MB-231 cells [1]; 1% FBS, 6 hours, 20 μM Tam): begin to show evidence of cell death
- cell viability (MDA-MB-231 cells [1]; 24 hours, 10 μM Tam, control conditions): most cells remain healthy
- cell viability (MDA-MB-231 cells [1]; serum-free, 6 hours, 10 μM tamoxifen): only a few viable cells remain
- cell viability (MDA-MB-231 cells [1]; serum-free, 6 hours, 20 μM tamoxifen): all cells are dead/dying
- cell viability (MDA-MB-231 cells [1]; serum-free, 24 hour, 3 μM tamoxifen): most control cells are lost
- cell viability (MDA-MB-231 cells [1]; serum-free, 24 hour, 10 μM tamoxifen): cell death is complete
- annexin V binding (apoptotic cell death) (MCF-7 cells; overnight treatment of MCF-7 cells): increase in annexin V binding
